Laboratory results as given in patent publication EP4741383A1, “COMPOUND AND USE THEREOF AS ANTI-CANCER DRUG” (Tyligand Bioscience (Shanghai) Limited, priority 2023, dated 2025).
pIC50: −log10 of the molar value.

Experiments:
[1] = tested on: KYSE520; assay: CellTiter-Glo cell proliferation inhibition, KYSE520; format: cell-based, human; settings: Homo sapiens, KYSE-520; KYSE520 cells, 120 hours, CellTiter-Glo
Source text: In this study, the CellTiter-Glo® Luminescent Cell Viability Assay kit from Promega was used to evaluate the inhibitory effects of the disclosed compounds on the proliferation of cell lines KYSE520 (a human esophageal squamous cell carcinoma cell line dependent on SHP2 for growth), MeWo (a human malignant melanoma cell line), and MV4-11 (an RTK-mutant human acute monocytic leukemia cell line).
KYSE520 cells (Nanjing Kebaio Biotechnology Co., Ltd., Catalog #CBP60658) were thawed by rapidly shaking the cryovial in a 37 °C water bath to thaw within 1 minute. The thawed cell suspension was mixed homogeneously with RPMI 1640 medium (HyClone, Catalog #SH30027.01) containing 10% FBS (ExCell, Catalog #FND500), centrifuged at 1000 rpm for 5 minutes, and the supernatant was discarded. The cell pellet was resuspended in 5 mL of complete culture medium (RPMI 1640 medium containing 10% FBS) and placed in a cell culture flask with 25 cm^2 of bottom area, then cultured in a cell culture incubator at 37 °C, 95% humidity, and 5% CO2. Cell passaging was performed when the cell confluence reached approximately 80%. During cell passaging, the old culture medium was discarded, the cells were washed once with DPBS (Thermo Fisher, Catalog #14190-144), and 1 mL of trypsin (Thermo Fisher, Catalog #25200072) was added to digest the cells. When the cells dispersed into single cells and detached from the bottom of the culture flask, 3 mL of fresh complete culture medium was added to stop the digestion. After gently pipetting the cell suspension, 1/5 of the cell suspension was retained, 5 mL of fresh complete culture medium was added, and after mixing, the cells were placed in a cell culture flask for further culture. Cell plating was performed when the cell confluence again reached approximately 80%. During cell plating, following the cell passaging method, 1/5 of the cell suspension was retained for continued culture, and the remaining 4/5 of the cell suspension was placed in a 15 mL centrifuge tube. Cell viability was determined using the trypan blue exclusion method to ensure that cell viability was above 90%. A cell suspension with a density of 2.22 × 10^4 cells/mL was prepared using complete culture medium, and 135 µL of the cell suspension was added to a 96-well transparent flat-bottom black-walled cell culture plate (Greiner, Catalog #655090), resulting in a cell density of 3000 viable cells per well. A control group containing only complete culture medium without cells and compounds (i.e., culture medium control) and a control group containing cells but no compound (i.e., cell control) were set up. The cell plates were incubated overnight in a cell culture incubator. First, a 10 mM stock solution of the compound (Example compound and positive control compound 11a-1) in DMSO (Damas-beta, catalog #75927R) was serially diluted 3-fold to the 9th concentration, and a 10th concentration containing only DMSO (without compound) was also prepared as a control. Then, the DMSO solutions containing different concentrations of the compound were diluted 100-fold with complete culture medium, resulting in a 1% DMSO concentration in each solution. Finally, 15 µL of each solution was added to the corresponding wells of the cell culture plate, resulting in a starting compound concentration of 10 µM, with a 3-fold dilution between adjacent concentrations, and a final DMSO concentration of 0.1% in the cell culture plate. The cell plates were then incubated in the cell culture incubator for another 120 hours.
For endpoint detection, CellTiter-Glo reagent (Promega, catalog number #G7573, CellTiter-Glo® Luminescent Cell Viability Assay Kit) was melt and each cell plate was moved to room temperature for equilibration for 30 minutes. 75 µL (KYSE520 cells) or 50 µL (MeWo cells and MV 4-11 cells) of CellTiter-Glo was added to each well of the corresponding cell plate. The plates were shaken on a track-mounted shaker for 2 minutes to fully lyse the cells. […]

[2] = molecular target: T1, SHP2 enzyme (catalytic domain, amino acid sequence 224-528) (Homo sapiens, UniProt Q06124); assay: SHP2 enzyme inhibition assay (DiFMUP substrate, fluorescence); format: biochemical; settings: for pIC50: SHP2 catalytic domain, DiFMUP substrate, 30 min pre-incubation, read-out: S HP2 I C50; for SHP2 IC50 times lower than control compound 11a-1: relative to 11a-1, IC50 = 0.108 µM
T1 construct: purchased GenScript
T1 sequence (Q06124 224-528): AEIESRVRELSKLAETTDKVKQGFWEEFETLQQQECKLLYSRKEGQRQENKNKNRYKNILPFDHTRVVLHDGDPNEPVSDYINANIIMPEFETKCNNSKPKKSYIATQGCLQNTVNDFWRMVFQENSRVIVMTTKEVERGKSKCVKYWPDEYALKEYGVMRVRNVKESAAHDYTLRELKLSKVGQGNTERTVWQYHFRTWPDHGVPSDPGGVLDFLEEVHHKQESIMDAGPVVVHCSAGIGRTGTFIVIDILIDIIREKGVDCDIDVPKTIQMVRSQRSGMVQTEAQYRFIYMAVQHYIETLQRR
How it was run: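 SHP2 catalytic domain (aa 224-528) preincubated 30 min at room temperature with compounds (10-point 3-fold series) in HEPES pH 7.2 buffer with NaCl, EDTA, DTT, BSA, Brij35. DiFMUP from 50 µM working solution added, 5 min reaction; fluorescence 340/450 nm; IC50 from nonlinear dose-response fit.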

In the case of `O=C(Nc1ccc(-c2cc3cc(F)c(-c4nnn[nH]4)cc3n2C2CCC2)cc1)C(=O)Nc1ccc(N2CCC3(CCOC3)C2)cc1` (centres unmarked) [Example 61], the IC50 [1] was 0.126 µM and the pIC50 [2] was 7.39.

For `O=C(Nc1ccc(-c2cc3cc(F)c(-c4nnn[nH]4)cc3n2C2CCC2)cc1)C(=O)Nc1ccc(N2CCC3(CCCOC3)C2)cc1` (centres unmarked) [Example 62], the IC50 [1] was 0.193 µM and the pIC50 [2] was 7.19.

`O=C(Nc1ccc(-c2cc3cc(F)c(-c4nnn[nH]4)cc3n2C2CCC2)cc1)C(=O)Nc1ccc(N2CCC3(CCOC3)CC2)cc1` [Example 67] was tested, and the IC50 [1] was 0.086 µM, the pIC50 [2] was 7.47 and the “SHP2 IC50 times lower than control compound 11a-1” value [2] was 3-4 times.

Compound `CC1(n2c(-c3ccc(NC(=O)C(=O)Nc4ccc(N5CCC6(CCOC6)CC5)cc4)cc3)cc3cc(F)c(-c4nnn[nH]4)cc32)CCC1` [Example 68] has an IC50 [1] of 0.057 µM and a pIC50 [2] of 7.32.

Work on `O=C(Nc1ccc(-c2cc3cc(F)c(-c4nnn[nH]4)cc3n2C2CC2)cc1)C(=O)Nc1ccc(N2CCC3(CCOC3)CC2)cc1` [Example 69] yielded an IC50 [1] of 0.189 µM and a pIC50 [2] of 7.34.

Work on `CC1(n2c(-c3ccc(NC(=O)C(=O)Nc4ccc(N5CCC6(CCOC6)CC5)cc4)cc3)cc3cc(F)c(-c4nnn[nH]4)cc32)CC1` [Example 70] yielded an IC50 [1] of 0.085 µM and a pIC50 [2] of 7.30.

`O=C(Nc1ccc(-c2cc3cc(F)c(-c4nnn[nH]4)cc3n2C2CCC2)cc1)C(=O)Nc1ccc(N2CCC3(CCCOC3)CC2)cc1` [Example 74] was tested, and the IC50 [1] was 0.116 µM and the pIC50 [2] was 7.19.

`O=C(Nc1ccc(-c2cc3cc(F)c(-c4nnn[nH]4)cc3n2C2CCC2)cc1)C(=O)Nc1ccc(N2CCC3(CCOCC3)CC2)cc1` [Example 76] was tested, and the IC50 [1] was 0.096 µM and the pIC50 [2] was 7.40.

For `CC1(n2c(-c3ccc(NC(=O)C(=O)Nc4ccc(N5CCC6(CCOCC6)CC5)cc4)cc3)cc3cc(F)c(-c4nnn[nH]4)cc32)CCC1` [Example 77], the IC50 [1] was 0.049 µM, the pIC50 [2] was 7.70 and the “SHP2 IC50 times lower than control compound 11a-1” value [2] was 3-4 times.

With `CC1(O)CCC2(CC1)CN(c1ccc(NC(=O)C(=O)Nc3ccc(-c4cc5cc(F)c(-c6nnn[nH]6)cc5n4C4CCC4)cc3)cc1)C2` [Example 83] the IC50 [1] was 0.163 µM and the pIC50 [2] was 7.24.

Compound `O=C(Nc1ccc(-c2cc3cc(F)c(-c4nnn[nH]4)cc3n2C2CCC2)cc1)C(=O)Nc1ccc(N2CCC3(CC(O)C3)C2)cc1` (centres unmarked) [Example 89] has an IC50 [1] of 0.062 µM and a pIC50 [2] of 6.80.

In the case of `O=C(Nc1ccc(-c2cc3cc(F)c(-c4nnn[nH]4)cc3n2C2CCC2)cc1)C(=O)Nc1ccc(N2CCC3(CCC(O)C3)C2)cc1` (centres unmarked) [Example 92], the IC50 [1] was 0.13 µM and the pIC50 [2] was 7.29.

For `CC1(O)CC2(CCN(c3ccc(NC(=O)C(=O)Nc4ccc(-c5cc6cc(F)c(-c7nnn[nH]7)cc6n5C5CCC5)cc4)cc3)CC2)C1` [Example 94], the IC50 [1] was 0.115 µM, the pIC50 [2] was 7.51 and the “SHP2 IC50 times lower than control compound 11a-1” value [2] was 3-4 times.

`CC1(O)CC2(CCN(c3ccc(NC(=O)C(=O)Nc4ccc(-c5cc6cc(F)c(-c7nnn[nH]7)cc6n5C5(C)CCC5)cc4)cc3)CC2)C1` [Example 95] was tested, and the IC50 [1] was 0.113 µM and the pIC50 [2] was 7.21.

Compound `O=C(Nc1ccc(-c2cc3cc(F)c(-c4nnn[nH]4)cc3n2C2CCC2)cc1)C(=O)Nc1ccc(N2CCC3(CC2)CC(CO)C3)cc1` [Example 96] has an IC50 [1] of 0.059 µM and a pIC50 [2] of 7.24.

`CC1(n2c(-c3ccc(NC(=O)C(=O)Nc4ccc(N5CCC6(CC5)CC(CO)C6)cc4)cc3)cc3cc(F)c(-c4nnn[nH]4)cc32)CCC1` [Example 97] showed an IC50 [1] of 0.095 µM and a pIC50 [2] of 6.98.

`O=C(Nc1ccc(-c2cc3cc(F)c(-c4nnn[nH]4)cc3n2C2CCC2)cc1)C(=O)Nc1ccc(N2CCC3(CCC(O)C3)CC2)cc1` (centres unmarked) [Example 100] showed an IC50 [1] of 0.057 µM and a pIC50 [2] of 7.32.

In the case of `CC1(n2c(-c3ccc(NC(=O)C(=O)Nc4ccc(N5CCC6(CCC(O)C6)CC5)cc4)cc3)cc3cc(F)c(-c4nnn[nH]4)cc32)CCC1` (centres unmarked) [Example 101], the IC50 [1] was 0.128 µM, the pIC50 [2] was 7.64 and the “SHP2 IC50 times lower than control compound 11a-1” value [2] was 3-4 times.

`COC1CC(n2c(-c3ccc(NC(=O)C(=O)Nc4ccc(N5CCC6(CCC(O)C6)CC5)cc4)cc3)cc3cc(F)c(-c4nnn[nH]4)cc32)C1` (centres unmarked) [Example 103] gave an IC50 [1] of 0.042 µM and a pIC50 [2] of 6.85.

`O=C(Nc1ccc(-c2cc3cc(F)c(-c4nnn[nH]4)cc3n2C2CCC2)cc1)C(=O)Nc1ccc(N2CCC3(CCC(O)CC3)CC2)cc1` [Example 108] was tested, and the IC50 [1] was 0.167 µM, the pIC50 [2] was 7.52 and the “SHP2 IC50 times lower than control compound 11a-1” value [2] was 3-4 times.

Compound `CC1(n2c(-c3ccc(NC(=O)C(=O)Nc4ccc(N5CCC6(CCC(O)CC6)CC5)cc4)cc3)cc3cc(F)c(-c4nnn[nH]4)cc32)CCC1` [Example 109] has an IC50 [1] of 0.107 µM and a pIC50 [2] of 7.21.

`CC1(O)CCC2(CCN(c3ccc(NC(=O)C(=O)Nc4ccc(-c5cc6cc(F)c(-c7nnn[nH]7)cc6n5C5CCC5)cc4)cc3)CC2)CC1` [Example 110] was tested, and the IC50 [1] was 0.109 µM and the pIC50 [2] was 7.11.

`CC1(O)CCC2(CCN(c3ccc(NC(=O)C(=O)Nc4ccc(-c5cc6cc(F)c(-c7nnn[nH]7)cc6n5C5(C)CCC5)cc4)cc3)CC2)CC1` [Example 111] showed an IC50 [1] of 0.105 µM and a pIC50 [2] of 7.03.

Work on `O=C(Nc1ccc(-c2cc3cc(F)c(-c4nnn[nH]4)cc3n2C2CCC2)cc1)C(=O)Nc1ccc(N2CC3COCC3C2)cc1` (centres unmarked) [Example 114] yielded an IC50 [1] of 0.118 µM and a pIC50 [2] of 7.14.

Compound `O=C(Nc1ccc(-c2cc3cc(F)c(-c4nnn[nH]4)cc3n2C2CCC2)cc1)C(=O)Nc1ccc(N2CC3CC(O)CC3C2)cc1` (centres unmarked) [Example 116] has an IC50 [1] of 0.092 µM and a pIC50 [2] of 7.20.

`CC1(O)CC2CN(c3ccc(NC(=O)C(=O)Nc4ccc(-c5cc6cc(F)c(-c7nnn[nH]7)cc6n5C5CCC5)cc4)cc3)CC2C1` (centres unmarked) [Example 117] showed an IC50 [1] of 0.104 µM and a pIC50 [2] of 7.15.

With `CC1(O)CC2CN(c3ccc(NC(=O)C(=O)Nc4ccc(-c5cc6cc(F)c(-c7nnn[nH]7)cc6n5C5(C)CCC5)cc4)cc3)CC2C1` (centres unmarked) [Example 118] the IC50 [1] was 0.116 µM and the pIC50 [2] was 7.35.

Compound `O=C(Nc1ccc(-c2ccsc2)cc1)C(=O)Nc1ccc(-c2cc3ccc(-c4nnn[nH]4)cc3n2C2CCC2)cc1` [Example 122] has an IC50 [1] of 4.36 µM and a pIC50 [2] of 7.18.

`Cn1cc(-c2ccc(NC(=O)C(=O)Nc3ccc(-c4cc5cc(F)c(-c6noc(=O)[nH]6)cc5n4C4CCC4)cc3)cc2)cn1` [Example 123] gave an IC50 [1] of 0.243 µM and a pIC50 [2] of 6.85.

`Cn1cc(-c2ccc(NC(=O)C(=O)Nc3ccc(-c4cc5cc(F)c(-c6nnc(C(F)(F)F)[nH]6)cc5n4C4CCC4)cc3)cc2)cn1` [Example 124] gave an IC50 [1] of 0.661 µM and a pIC50 [2] of 6.15.

For `O=C(Nc1ccc(-c2oc3cc(F)c(-c4nnn[nH]4)cc3c2C2CCC2)cc1)C(=O)Nc1ccc(N2CCC3(CCOC3)CC2)cc1` [Example 125], the IC50 [1] was 0.68 µM and the pIC50 [2] was 7.29.

With `O=C(Nc1ccc(-c2ccsc2)cc1)C(=O)Nc1ccc(-c2cc3ccc(-c4nnn[nH]4)nc3n2C2CCC2)cc1` [Example 129] the IC50 [1] was 2.85 µM and the pIC50 [2] was 7.23.

In the case of `O=C(Nc1ccc(-c2ccsc2)cc1)C(=O)Nc1ccc(-c2oc3cc(F)c(-c4nnn[nH]4)cc3c2C2CCC2)cc1` [Example 130], the IC50 [1] was 0.422 µM and the pIC50 [2] was 7.60.
